Q: With `CCc1c(C2CCN(CCCSc3ccc(F)cc3)CC2)c2ccc(F)cc2n1-c1nc(C)ccc1O` [Example 3] as the compound, how does the melting point read?
A: 142 °C
